Source: patent US6781033B2, “Method for the transformation of plant cell plastids” (Monsanto Technology LLC, priority 2000, dated 2004)

How the values were obtained:
[1] = tested on: wild-type plant cell plastids of tobacco leaf tissue; experiment: Electron microscopic analysis of plastid ultrastructure in tobacco leaf tissue cultured on drug-containing medium; format: cell-based, Nicotiana tabacum cv Petit Havana
Method: (§1) Wild-type plants of Nicotiana tabacum cv Petit Havana were propagated in sterile hormone free MS medium (Murashige and Skoog (1962) Physiol. Plant. 15,473-497) supplemented with B5 vitamins in Phytatrays or sundae cups with a 16-hour photoperiod at 24° C. Leaf sections were aseptically removed and placed into new plant regeneration medium containing various concentrations of glyphosate, spectinomycin and phospinothricin. The leaf material was collected at 1-week and 4-week time points and prepared for electron microscopic observation of plastid ultrastructure. As a control, wild-type leaf sections were exposed to the initially plastid non-lethal antibiotic, spectinomycin, under identical conditions, or to medium without any drug.
Cultured tobacco leaf pieces 1 mm^2 were fixed in 4% glutaraldehyde in 0.1 M sodium cacodylate buffer, pH 7.2 for 3 hours, with the first 30 minutes under vacuum. The tissue was further fixed in 1% osmium tetroxide in the above buffer for 90 minutes and stained with 1% aqueous uranyl acetate for 2 hours. Ethanol and propylene oxide were used to dehydrate the tissue prior to infiltration with a 1:1 mixture of Spurr's:EMbed 812 resin. The resin was polymerized at 60° C. for 48 hours. The resulting blocks were sectioned on a Leica Ultracut E microtome. Sections 80 nm thick were picked up on formvar/carbon-coated copper slot grids. The grids were stained with uranyl acetate and lead citrate in a LKB Ultrastainer and examined with a JEOL 1200 transmission electron microscope. All reagents were obtained from Electron Microscopy Sciences, Fort Washington, Pa.
Tobacco leaf tissue was also analyzed on medium containing lower concentrations of glyphosate. […] Cultured tissue was prepared for electron microscopy as described above.
To test the general effect of herbicides on plastid morphology, we examined tobacco leaf cultures that were grown in the presence of phosphinothricin (PPT, active ingredient in BASTA herbicide) at 4 mg/L, the concentration normally used for nuclear transformation. Leaves from healthy, tobacco plants at the same developmental stage were cut into about 5 mm×5 mm sections and placed on MS/B5 medium with 3% sucrose, 1 mg/L BAP, 0.1 mg/L NAA and 4 mg/L phosphinothricin for the 3, 7 or 12 days. The leaf sections were then fixed and processed for TEM analysis.

[2] = tested on: tobacco leaf plant cultures; experiment: Visual appearance of tobacco leaf cultures on drug-containing medium; format: cell-based, Nicotiana tabacum cv Petit Havana
Method: as §1

[3] = tested on: bombarded tobacco leaf explants; experiment: Direct selection of bombarded tobacco leaf explants on lethal level of PPT; format: cell-based, Nicotiana tabacum cv. Havana; settings: 4 mg/L PPT, leaves bombarded with pMON53159
Method: Dark green, round leaves are cut, preferably from the middle of the shoots, from 3-6 week old Nicotiana tabacum cv. Havana that have been maintained in vitro on hormone-free MS medium (Murashige and Skoog, (1962) Physiol Plant. 15, 473-497) supplemented with B5 vitamins in Phytatrays or sundae cups with a 16-hour photoperiod at 24° C. Each cut leaf is then placed adaxial side up on sterile filter paper over tobacco shoot regeneration medium (TSO medium: MS salts, 1 mg/L N^6-benzyladenine, 0.1 mg/L 1-naphthaleneacetic acid, 1 mg/L thiamine, 100 mg/L inositol, 7 g/L agar pH 5.8 and 30 g/L sucrose). Leaves are preferably placed in the center of the plate with as much contact with the medium as possible. The plates are preferably prepared immediately prior to use but may be prepared up to a day before transformation by particle bombardment by wrapping in plastic bags and storing at 24° C. overnight.
Plates containing the leaf samples are placed on the second shelf from the bottom of the vacuum chamber and bombarded using the 1100 p.s.i. rupture disk. After bombardment, petri plates containing the leaf samples are wrapped in plastic bags and incubated at 24° C. for 48 hours as a delay period prior to phase one culturing.
Direct selection of phosphinothricin (PPT) resistant transformants on lethal levels of PPT using plasmid pMON53159 carrying the bar gene alone were unsuccessful. […]

Compound	plastid ultrastructure (TEM) ([1]; 500 mg/L spectinomycin, four weeks)	plastid ultrastructure (TEM) ([1]; 500 mg/L spectinomycin, one week)	visual effect on plant cultures ([2]; after 1 week)	visual effect on plant cultures ([2]; after 4 weeks, spectinomycin)	plastid ultrastructure (TEM) ([1]; 4 mg/L phosphinothricin, 3 days)	plastid ultrastructure (TEM) ([1]; 4 mg/L phosphinothricin, 7 days)	plastid ultrastructure (TEM) ([1]; 4 mg/L phosphinothricin, 12 days)	appearance of explants under direct selection [3]	plastoglobuli diameter ([1]; 1 μM glyphosate, 7 days)	plastid ultrastructure (TEM) ([1]; 1 μM glyphosate, 7 days, TSO medium)	plastid ultrastructure (TEM) ([1]; 5 μM glyphosate, 7 days)	plastid ultrastructure (TEM) ([1]; 10 μM glyphosate, 7 days)	plastid ultrastructure (TEM) ([1]; 20 μM glyphosate, 3 days)	plastid ultrastructure (TEM) ([1]; 20 μM glyphosate, 7 days)	plastid ultrastructure (TEM) ([1]; 50 μM glyphosate, four weeks)	plastid ultrastructure (TEM) ([1]; 50 μM glyphosate, one week)	plastid ultrastructure (TEM) ([1]; 200 μM glyphosate, four weeks)	plastid ultrastructure (TEM) ([1]; 200 μM glyphosate, one week)	visual effect on plant cultures ([2]; after 4 weeks, lower concentrations of glyphosate)
CN[C@@H]1[C@H](O)[C@H](NC)[C@H]2O[C@@]3(O)C(=O)C[C@@H](C)O[C@H]3O[C@@H]2[C@H]1O [spectinomycin]	plastids internal membranes have broken down almost completely and become vacuolated	plastids look relatively normal	minimal effect on plant cultures visually	tissue is completely bleached	–	–	–	–	–	–	–	–	–	–	–	–	–	–	–
CP(=O)(O)CC[C@H](N)C(=O)O [PPT, phosphinothricin]	–	–	–	–	Thylakoid membranes are completely absent	even more dramatic, with oil bodies accumulated in the organelles	even more dramatic, with oil bodies accumulated in the organelles	bleached and demonstrated little or no cell expansion	–	–	–	–	–	–	–	–	–	–	–
O=C(O)CNCP(=O)(O)O [glyphosate]	–	–	minimal effect visually on plant cultures	–	–	–	–	–	approximately 0.25 μm	typical morphology of metabolically active photosynthetic plastids	normal in appearance	normal in appearance	chloroplasts are beginning to show morphological damage	thylakoid membrane system is severely damaged	plastids appear to have recovered or adapted to some degree	reticulate network of thylakoid membranes has disappeared	completely devoid of internal structure	damage to plastid structure is occurring rapidly	begin to form shoot primordia indicating recovery of the tissue
